Experimental data taken from patent publication US11773062B2, “Deuterated compounds” (priority 2021, dated 2023).

Assays:
[1] = Human liver mitochondrial fraction intrinsic clearance of SPL026 with/without MAO-A and MAO-B inhibitors; assay type: in vitro ADME
Description: (§1) Human Liver Mitochondrial (HLMt) fractions contain high quantities of MAO enzymes and therefore, provide a useful tool to measure the clearance of MAO substrates.

[2] = system: human (mixed gender) hepatocytes; test: In vitro intrinsic clearance in human hepatocytes with and without MAO-A/B inhibitor combination (first experiment); details: for % change in half-life, MAO inhibitors vs no inhibitors / % change in intrinsic clearance, MAO inhibitors vs no inhibitors: human hepatocytes (Table 5)
Procedure: Standard final incubation conditions are 1 μM compound in buffer containing nominally ˜0.5 million viable cells/mL, ˜0.9% (v/v) acetonitrile (MeCN) and ˜0.1% (v/v) DMSO (specific assay concentrations outlined above, section 2).
Samples are then centrifuged at 4° C.

[3] = Human liver mitochondrial fraction intrinsic clearance of SPL026, SPL028i, SPL028iii, SPL028viii; assay type: in vitro ADME; details: for Intrinsic Clearance / half-life: 0.5 mg/mL human liver mitochondrial fraction (Table 10)
Description: as §1

[4] = In vitro mouse hepatocytic intrinsic clearance; details: male, CD-1, mouse, hepatocytes
CYP2C9 = CYP2C9 (Homo sapiens, UniProt P11712); test: in vitro; details: human, recombinant enzyme, pH 7.4
CYP2C9, sequence (P11712 whole entry): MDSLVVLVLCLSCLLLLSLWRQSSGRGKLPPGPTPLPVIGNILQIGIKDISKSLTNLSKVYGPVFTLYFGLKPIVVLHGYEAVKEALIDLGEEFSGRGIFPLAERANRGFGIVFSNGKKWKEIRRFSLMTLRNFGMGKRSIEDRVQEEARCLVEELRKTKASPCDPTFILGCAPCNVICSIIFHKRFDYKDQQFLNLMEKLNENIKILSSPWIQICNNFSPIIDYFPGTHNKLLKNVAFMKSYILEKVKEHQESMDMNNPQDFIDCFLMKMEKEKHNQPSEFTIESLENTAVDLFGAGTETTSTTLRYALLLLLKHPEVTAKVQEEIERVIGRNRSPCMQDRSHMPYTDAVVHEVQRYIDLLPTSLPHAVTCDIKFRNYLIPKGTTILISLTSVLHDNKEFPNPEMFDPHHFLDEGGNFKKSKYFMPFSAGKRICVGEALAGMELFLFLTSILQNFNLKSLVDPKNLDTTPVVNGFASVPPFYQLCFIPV
Procedure: (§2) Samples were taken at predetermined time points.
(§3) Samples were then centrifuged at −4° C.
(§4) Positive control markers are as specified in Table 11.

CYP3A4 = CYP3A4 (Homo sapiens, UniProt P08684); test: in vitro; details: human, recombinant enzyme, pH 7.4
CYP3A4, sequence (P08684 whole entry): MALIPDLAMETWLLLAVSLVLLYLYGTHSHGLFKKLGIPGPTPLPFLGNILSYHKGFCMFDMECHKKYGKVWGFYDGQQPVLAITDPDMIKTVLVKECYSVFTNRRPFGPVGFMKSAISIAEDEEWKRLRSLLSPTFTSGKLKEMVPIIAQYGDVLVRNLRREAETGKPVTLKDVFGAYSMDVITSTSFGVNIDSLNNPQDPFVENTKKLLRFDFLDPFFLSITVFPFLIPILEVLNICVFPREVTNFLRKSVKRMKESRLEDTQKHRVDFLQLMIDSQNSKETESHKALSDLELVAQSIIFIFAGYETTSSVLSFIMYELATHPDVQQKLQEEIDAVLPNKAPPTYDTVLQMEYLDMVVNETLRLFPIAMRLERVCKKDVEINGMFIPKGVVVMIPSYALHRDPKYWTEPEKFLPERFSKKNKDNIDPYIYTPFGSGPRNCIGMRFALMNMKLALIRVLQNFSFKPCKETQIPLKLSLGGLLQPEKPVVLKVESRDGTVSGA
Procedure: as §2, §3, §4

CYP3A5 = CYP3A5 (Homo sapiens, UniProt P20815); test: in vitro; details: human, recombinant enzyme, pH 7.4
CYP3A5, sequence (P20815 whole entry): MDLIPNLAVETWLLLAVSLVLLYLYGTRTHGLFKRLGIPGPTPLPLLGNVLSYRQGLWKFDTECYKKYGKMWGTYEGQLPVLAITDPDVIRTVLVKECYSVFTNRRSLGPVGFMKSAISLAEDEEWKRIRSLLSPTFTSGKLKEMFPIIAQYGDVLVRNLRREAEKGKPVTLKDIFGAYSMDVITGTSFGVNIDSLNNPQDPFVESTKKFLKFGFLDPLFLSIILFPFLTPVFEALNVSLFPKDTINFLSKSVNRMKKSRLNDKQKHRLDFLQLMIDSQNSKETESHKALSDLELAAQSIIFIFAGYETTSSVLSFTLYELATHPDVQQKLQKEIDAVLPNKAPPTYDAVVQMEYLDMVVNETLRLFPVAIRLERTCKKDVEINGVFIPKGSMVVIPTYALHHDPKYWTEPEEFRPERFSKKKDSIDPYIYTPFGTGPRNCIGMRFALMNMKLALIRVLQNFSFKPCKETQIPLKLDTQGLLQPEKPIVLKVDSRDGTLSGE
Procedure: as §2, §3, §4

CYP2C8 = biological target: T1, CYP2C8 (Homo sapiens, UniProt P10632); test: in vitro; details: human, recombinant enzyme, pH 7.4
T1 sequence (P10632 1-490): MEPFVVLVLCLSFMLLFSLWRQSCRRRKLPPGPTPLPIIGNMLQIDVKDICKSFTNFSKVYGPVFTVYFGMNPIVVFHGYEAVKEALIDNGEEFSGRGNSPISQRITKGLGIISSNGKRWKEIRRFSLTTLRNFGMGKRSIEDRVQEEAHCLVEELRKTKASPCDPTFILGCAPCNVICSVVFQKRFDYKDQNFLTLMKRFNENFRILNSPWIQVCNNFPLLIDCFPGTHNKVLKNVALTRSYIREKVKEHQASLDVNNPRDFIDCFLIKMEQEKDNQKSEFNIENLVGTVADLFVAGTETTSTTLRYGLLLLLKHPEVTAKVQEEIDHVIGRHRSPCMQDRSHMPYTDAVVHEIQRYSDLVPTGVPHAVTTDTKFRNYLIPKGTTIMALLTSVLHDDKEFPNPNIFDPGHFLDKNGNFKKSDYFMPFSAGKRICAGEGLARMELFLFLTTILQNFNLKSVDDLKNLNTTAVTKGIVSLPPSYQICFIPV
Procedure: as §2, §3, §4

CYP2C19 = CYP2C19 (Homo sapiens, UniProt P33261); test: in vitro; details: human, recombinant enzyme, pH 7.4
CYP2C19, sequence (P33261 whole entry): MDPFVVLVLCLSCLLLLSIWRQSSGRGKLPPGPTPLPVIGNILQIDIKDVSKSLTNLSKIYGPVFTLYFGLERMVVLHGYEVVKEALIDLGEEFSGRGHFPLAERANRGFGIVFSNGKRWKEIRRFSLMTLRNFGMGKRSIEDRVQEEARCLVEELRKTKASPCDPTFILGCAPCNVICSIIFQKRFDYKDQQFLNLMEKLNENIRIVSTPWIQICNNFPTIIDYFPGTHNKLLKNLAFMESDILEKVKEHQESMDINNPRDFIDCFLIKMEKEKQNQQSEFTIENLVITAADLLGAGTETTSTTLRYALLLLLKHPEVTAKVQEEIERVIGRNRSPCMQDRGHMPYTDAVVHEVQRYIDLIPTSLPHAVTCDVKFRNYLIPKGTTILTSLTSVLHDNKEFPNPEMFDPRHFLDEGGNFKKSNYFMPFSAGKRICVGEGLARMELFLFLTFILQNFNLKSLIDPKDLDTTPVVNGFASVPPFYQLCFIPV
Procedure: as §2, §3, §4

[5] = system: mouse (male CD-1) hepatocytes; test: In vitro mouse hepatocytic intrinsic clearance; details: mouse CD-1 hepatocytes 0.367 million cells/mL, 5 μM (Table 8)
CYP1A2 = biological target: T2, CYP1A2 (Homo sapiens, UniProt P05177); test: in vitro; details: human, recombinant enzyme, pH 7.4
T2 sequence (P05177 1-516): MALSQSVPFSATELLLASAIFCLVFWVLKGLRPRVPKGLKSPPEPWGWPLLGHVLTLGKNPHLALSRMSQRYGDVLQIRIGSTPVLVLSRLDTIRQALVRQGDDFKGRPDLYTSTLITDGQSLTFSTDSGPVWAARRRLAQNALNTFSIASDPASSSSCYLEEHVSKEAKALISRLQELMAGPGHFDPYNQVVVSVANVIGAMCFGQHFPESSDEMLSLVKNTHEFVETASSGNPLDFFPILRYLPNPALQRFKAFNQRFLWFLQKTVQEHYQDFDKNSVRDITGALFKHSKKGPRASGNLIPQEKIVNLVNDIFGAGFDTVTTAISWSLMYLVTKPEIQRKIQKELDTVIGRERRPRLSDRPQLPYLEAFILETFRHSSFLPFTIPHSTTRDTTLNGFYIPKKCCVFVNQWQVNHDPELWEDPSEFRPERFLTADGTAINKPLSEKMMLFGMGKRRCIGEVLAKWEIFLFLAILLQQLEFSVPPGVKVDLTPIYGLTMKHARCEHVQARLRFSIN
Procedure: as §2, §3, §4

[6] = 0.5 mg/mL human liver mitochondrial fraction, DMSO Vehicle (no inhibitor)
[7] = human hepatocytes, with 100 nM clorgyline + 100 nM deprenyl/selegiline (Table 3)
[8] = human hepatocytes, with MAO-A/B inhibitor combination (Table 5)
[9] = human hepatocytes, with MAO-A/B inhibitors (Table 4; unit given only in Table 5)
[10] = human hepatocytes, without MAO inhibitors (Table 4; unit given only in Table 5)
[11] = human hepatocytes, without MAO-A/B inhibitor combination (Table 5)

NCc1ccccc1 [Benzylamine, reference compound]
half-life [1, 6]: 30.4 min | half-life ([1]; human liver mitochondrial fraction, Deprenyl (MAO-B inhibitor) 100 nM): >420.2 min | % change in half-life, MAO inhibitors vs no inhibitors [2]: >83.41% | % change in intrinsic clearance, MAO inhibitors vs no inhibitors [2]: <−450% | Intrinsic clearance, with inhibitors [2, 7]: <3.0 μL/min/million cells | Half-life, with inhibitors [2, 8]: 460 min | Intrinsic clearance, with inhibitors [2, 8]: <3.0 μL/min/million cells | Half-life, with inhibitors [2, 9]: 460.00 min | Half-life, without inhibitors [2, 10]: 76.30 min | Half-life, without inhibitors [2, 11]: 76.3 min | Intrinsic clearance, without inhibitors [2, 11]: 16.7 μL/min/million cells | Intrinsic Clearance [3]: 60.0 μL/min/mg protein | half-life [3]: 23.2 min | fold increase in intrinsic clearance, human liver mitochondria compared to hepatocyte fraction ([3]; positive controls): ~3.6 fold | half-life at 5 μM [4]: 14.3 min | hepatocyte CLint at 5 μM [4]: 134 µL/min/1e6 cells

O=C(O)Cc1ccccc1Nc1c(Cl)cccc1Cl [Diclofenac, reference compound]
half-life (CYP2C9): 1 min | intrinsic clearance, CYP isoform 2C9 (CYP2C9): 4731 μL/min/nmol CYP | half-life at 5 μM [4]: 34.1 min | hepatocyte CLint at 5 μM [4]: 57.7 µL/min/1e6 cells

COc1ccc([C@@H]2Sc3ccccc3N(CCN(C)C)C(=O)[C@@H]2OC(C)=O)cc1 [Diltiazem, reference compound]
half-life at 5 μM [4]: < 3 min | hepatocyte CLint at 5 μM [4]: > 460 µL/min/1e6 cells

Cc1ncc2n1-c1ccc(Cl)cc1C(c1ccccc1F)=NC2 [Midazolam, reference compound]
half-life (CYP3A4): 5 min | intrinsic clearance, CYP isoform 3A4 (CYP3A4): 1369 μL/min/nmol CYP | half-life (CYP3A5): 11 min | intrinsic clearance, CYP isoform 3A5 (CYP3A5): 623 μL/min/nmol CYP

CC(C)(O)c1ccccc1CC[C@@H](SCC1(CC(=O)O)CC1)c1cccc(/C=C/c2ccc3ccc(Cl)cc3n2)c1 [Montelukast, reference compound]
half-life (CYP2C8): 62 min | intrinsic clearance, CYP isoform 2C8 (CYP2C8): 122 μL/min/nmol CYP

CC(C)NCC(O)COc1cccc2ccccc12 (stereo not shown) [Propranolol, reference compound]
half-life (CYP2C19): 12 min

[2H]C([2H])(Cc1c[nH]c2ccccc12)N(C)C [SPL028iii, α,α,-bis-deuterium-N,N-dimethyltryptamine]
% change in half-life, MAO inhibitors vs no inhibitors [2]: 25.93% | % change in intrinsic clearance, MAO inhibitors vs no inhibitors [2]: −35.65% | Intrinsic clearance, with inhibitors [2, 7]: 6.90 μL/min/million cells | Half-life, with inhibitors [2, 8]: 189.6 min | Intrinsic clearance, with inhibitors [2, 8]: 6.9 μL/min/million cells | Half-life, with inhibitors [2, 9]: 189.60 min | Intrinsic clearance, without inhibitors [2, 11]: 9.36 μL/min/million cells | Intrinsic Clearance [3]: 15.0 μL/min/mg protein | half-life [3]: 31.1 min | w Half-life [5]: 17.9 min | w Intrinsic clearance [5]: 106.2 μL/min/million cells

[2H]C([2H])(Cc1c[nH]c2ccccc12)N(C)C [SPL028iv, α,α,-bis-deuterium-N,N-dimethyltryptamine]
change in intrinsic clearance with the inclusion of MAO inhibitors ([2]; human hepatocytes): 49% | % change in half-life, MAO inhibitors vs no inhibitors [2]: 31.74% | % change in intrinsic clearance, MAO inhibitors vs no inhibitors [2]: −49.33% | Intrinsic clearance, with inhibitors [2, 7]: 7.46 μL/min/million cells | Half-life, with inhibitors [2, 8]: 171.17 min | Intrinsic clearance, with inhibitors [2, 8]: 7.46 μL/min/million cells | Half-life, with inhibitors [2, 9]: 171.17 min | Intrinsic clearance, without inhibitors [2, 11]: 11.14 μL/min/million cells | w Half-life [5]: 17.7 min | w Intrinsic clearance [5]: 106.9 μL/min/million cells

[2H]C([2H])(Cc1c[nH]c2ccccc12)N(C)C [SPL028v, α,α,-bis-deuterium-N,N-dimethyltryptamine]
% change in half-life, MAO inhibitors vs no inhibitors [2]: 11.47% | % change in intrinsic clearance, MAO inhibitors vs no inhibitors [2]: −15.56% | Intrinsic clearance, with inhibitors [2, 7]: 9.51 μL/min/million cells | Intrinsic clearance, with inhibitors [2, 8]: 9.51 μL/min/million cells | Intrinsic clearance, without inhibitors [2, 11]: 10.99 μL/min/million cells | w Half-life [5]: 16.1 min | w Intrinsic clearance [5]: 117.7 μL/min/million cells

[2H]C([2H])(Cc1c[nH]c2ccccc12)N(C)C [SPL028vi, α,α,-bis-deuterium-N,N-dimethyltryptamine]
% change in half-life, MAO inhibitors vs no inhibitors [2]: 20.55% | % change in intrinsic clearance, MAO inhibitors vs no inhibitors [2]: −26.41% | Intrinsic clearance, with inhibitors [2, 7]: 10.79 μL/min/million cells | Intrinsic clearance, with inhibitors [2, 8]: 10.79 μL/min/million cells | Half-life, without inhibitors [2, 10]: 95.04 min | Half-life, without inhibitors [2, 11]: 95.04 min | Intrinsic clearance, without inhibitors [2, 11]: 13.64 μL/min/million cells | w Half-life [5]: 16.6 min | w Intrinsic clearance [5]: 114.0 μL/min/million cells

[2H]C([2H])([2H])N(C([2H])([2H])[2H])C([2H])([2H])Cc1c[nH]c2ccccc12 [SPL028viii, α,α,bis-deuterio-N,N-hexadeuterio-dimethyltryptamine]
Intrinsic Clearance [3]: 10.9 μL/min/mg protein

NCCc1c[nH]c2ccc(O)cc12 [Serotonin, reference compound]
half-life [1, 6]: 11.1 min | half-life ([1]; human liver mitochondrial fraction, Clorgyline (MAO-A inhibitor) 100 nM): >420.2 min | % change in half-life, MAO inhibitors vs no inhibitors [2]: 73.75% | % change in intrinsic clearance, MAO inhibitors vs no inhibitors [2]: −282.18% | Intrinsic clearance, with inhibitors [2, 7]: 10.10 μL/min/million cells | Intrinsic clearance, with inhibitors [2, 8]: 10.1 μL/min/million cells | Half-life, without inhibitors [2, 10]: 33.00 min | Half-life, without inhibitors [2, 11]: 33 min | Intrinsic clearance, without inhibitors [2, 11]: 38.6 μL/min/million cells | Intrinsic Clearance [3]: 151.0 μL/min/mg protein | half-life [3]: 9.2 min | half-life at 5 μM [4]: 22.8 min | hepatocyte CLint at 5 μM [4]: 83 µL/min/1e6 cells

Nc1c2c(nc3ccccc13)CCCC2 [Tacrine, reference compound]
half-life (CYP1A2): 37 min | intrinsic clearance, CYP isoform 1A2 (CYP1A2): 189 μL/min/nmol CYP
